Tests used:
Format in all cases: cell-based
[1] = molecular target: T1, Smo D473H mutant (Homo sapiens, UniProt Q99835, D473H); assay: Reporter assay of C3H10T1/2-Gli-Luc cells transfected with Smo D473H mutant, without SAG; conditions: C3H10T1/2 cells transfected with pLPCX-SMO-D473H, no SAG, 48 hr; read-out: Inhibition of C3H10T1/2-Gli-Luc-Smo-D473H [IC50
T1 construct: expressed in transfected cells; host or cells: C3H10T1/2 cells (ATCC CCL-226), transient transfection with pLPCX-SMO-D473H
In short: (§1)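 C3H10T1/2-Gli-Luc cells transiently transfected with wild-type or D473H SMO, replated in 0.5% FBS RPMI and incubated with compounds 48 h at 37 °C without SAG. Dual-luciferase, firefly normalized to Renilla; scaled to DMSO (100%) and 10 μM ALLO-2 (0%); IC50 by nonlinear regression.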

[2] = molecular target: T2, Smo wild type (Homo sapiens, UniProt Q99835); assay: Reporter assay of C3H10T1/2-Gli-Luc cells transfected with wild-type Smo, without SAG; conditions: C3H10T1/2 cells transfected with pLPCX-SMO, no SAG, 48 hr; read-out: Inhibition of C3H10T1/2-Gli-Luc-Smo-WT [IC50
T2 construct: expressed in transfected cells; host or cells: C3H10T1/2 cells (ATCC CCL-226), transient transfection with pLPCX-SMO
In short: as §1

[3] = test system: hedgehog pathway (pGL3-7xGli-Luciferase reporter in C3H10T1/2 cells); assay: Transient transfection of C3H10T1/2 and Gli-Luc reporter assay with SAG stimulation; conditions: Mus musculus, C3H 10T1/2, SAG 20 nM, 48 hr, read-out: Inhibition of Gli-Luc expression [IC50
In short: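 C3H10T1/2 cells were transiently transfected with a 7xGli-firefly luciferase reporter and a TK-Renilla control, then treated with serially diluted compounds plus 20 nM SAG in 0.5% FBS for 48 h at 37 °C. Firefly signal was normalized to Renilla and scaled between DMSO with SAG (100%) and without SAG (0%). IC50 was obtained by nonlinear regression.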

T2 sequence (Q99835 28-787): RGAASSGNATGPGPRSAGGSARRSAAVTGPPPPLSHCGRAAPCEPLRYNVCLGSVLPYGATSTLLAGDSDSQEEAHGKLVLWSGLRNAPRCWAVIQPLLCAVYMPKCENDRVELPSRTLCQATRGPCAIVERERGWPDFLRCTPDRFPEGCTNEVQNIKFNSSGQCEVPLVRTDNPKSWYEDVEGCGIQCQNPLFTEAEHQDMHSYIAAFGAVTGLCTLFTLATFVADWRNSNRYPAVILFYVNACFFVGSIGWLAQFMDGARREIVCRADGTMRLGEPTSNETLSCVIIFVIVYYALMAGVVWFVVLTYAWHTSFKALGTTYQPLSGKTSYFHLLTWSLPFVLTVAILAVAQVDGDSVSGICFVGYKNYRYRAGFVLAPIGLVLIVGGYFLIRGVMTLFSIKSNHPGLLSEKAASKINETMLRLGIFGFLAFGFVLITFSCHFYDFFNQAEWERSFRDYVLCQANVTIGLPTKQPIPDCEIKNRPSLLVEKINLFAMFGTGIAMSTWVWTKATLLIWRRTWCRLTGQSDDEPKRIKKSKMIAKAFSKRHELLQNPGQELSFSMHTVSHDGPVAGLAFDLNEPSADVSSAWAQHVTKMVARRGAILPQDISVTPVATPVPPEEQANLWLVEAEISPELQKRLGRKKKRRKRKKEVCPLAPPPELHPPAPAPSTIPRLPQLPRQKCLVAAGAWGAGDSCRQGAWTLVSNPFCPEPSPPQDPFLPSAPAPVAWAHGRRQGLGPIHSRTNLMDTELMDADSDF
T1 sequence (Q99835 28-787 D473H): as the sequence (Q99835 28-787) above, with D446H counted along it

Compound	IC50 [1] [nM]	IC50 [2] [nM]	IC50 [3] [nM]
CSc1cnc(Nc2ccc(C(=O)Nc3cc(CN4CCOCC4)ccc3F)cc2F)nc1-c1ccc(OC(F)(F)F)cc1 [Compound 55, 3-Fluoro-N-(2-fluoro-5-morpholin-4-ylmethyl-phenyl)-4-[5-methylsulfanyl-4-(4-trifluoromethoxy-phenyl)-pyrimidin-2-ylamino]-benzamide]	< 100	< 100	< 100
CSc1cnc(Nc2ccc(C(=O)Nc3cc(CN4CCOCC4)ccc3F)cc2F)nc1-c1ccc(F)cc1 [Compound 57, 3-Fluoro-N-(2-fluoro-5-morpholin-4-ylmethyl-phenyl)-4-[4-(4-fluoro-phenyl)-5-methylsulfanyl-pyrimidin-2-ylamino]-benzamide]	100 to 1000	< 100	< 100
COc1ccc(CN2CCOCC2)cc1NC(=O)c1ccc(Nc2ncc(SC)c(-c3ccc(OC(F)(F)F)cc3)n2)c(F)c1 [Compound 58, 3-Fluoro-N-(2-methoxy-5-morpholin-4-ylmethyl-phenyl)-4-[5-methylsulfanyl-4-(4-trifluoromethoxy-phenyl)-pyrimidin-2-ylamino]-benzamide]	100 to 1000	< 100	< 100
COc1cnc(Nc2ccc(C(=O)Nc3cc(CN4CCN(C)CC4)ccc3C)cc2F)nc1-c1ccc(OC(F)(F)F)cc1 [Compound 62, 3-Fluoro-4-[5-methoxy-4-(4-trifluoromethoxy-phenyl)-pyrimidin-2-ylamino]-N-[2-methyl-5-(4-methyl-piperazin-1-ylmethyl)-phenyl]-benzamide]	100 to 1000	< 100	< 100
CSc1cnc(Nc2ccc(C(=O)Nc3cc(CN4CCOCC4)ccc3C)cn2)nc1-c1ccc(OC(F)(F)F)cc1 [Compound 63, N-(2-Methyl-5-morpholin-4-ylmethyl-phenyl)-6-[5-methylsulfanyl-4-(4-trifluoromethoxy-phenyl)-pyrimidin-2-ylamino]-nicotinamide]	< 100	< 100	< 100
CSc1cnc(Nc2ccc(C(=O)Nc3cccc(CN4CCOCC4)c3)cn2)nc1-c1ccc(OC(F)(F)F)cc1 [Compound 64, 6-[5-Methylsulfanyl-4-(4-trifluoromethoxy-phenyl)-pyrimidin-2-ylamino]-N-(3-morpholin-4-ylmethyl-phenyl)-nicotinamide]	< 100	< 100	< 100
CSc1cnc(Nc2ccc(C(=O)Nc3cccc(CN4CCOCC4)c3)cc2)nc1-c1ccc(OC(F)(F)F)cc1 [Compound 65, 4-[5-Methylsulfanyl-4-(4-trifluoromethoxy-phenyl)-pyrimidin-2-ylamino]-N-(3-morpholin-4-ylmethyl-phenyl)-benzamide]	100 to 1000	< 100	< 100
CSc1cnc(Nc2ccc(C(=O)Nc3cccc(CN4CCOCC4)c3)cc2)nc1-c1ccc(C(F)(F)F)nc1 [Compound 69, 4-[5-Methylsulfanyl-4-(6-trifluoromethyl-pyridin-3-yl)-pyrimidin-2-ylamino]-N-(3-morpholin-4-ylmethyl-phenyl)-benzamide]	100 to 1000	< 100	< 100
CSc1cnc(Nc2ccc(C(=O)Nc3cc(CN4CCOCC4)ccc3F)cc2)nc1-c1ccc(OC(F)(F)F)cc1 [Compound 70, N-(2-Fluoro-5-morpholin-4-ylmethyl-phenyl)-4-[5-methylsulfanyl-4-(4-trifluoromethoxy-phenyl)-pyrimidin-2-ylamino]-benzamide]	< 100	< 100	< 100

The next lines start with the values.

IC50 [1] [nM]	IC50 [2] [nM]	IC50 [3] [nM]	Compound
100 to 1000	< 100	< 100	CCN(CC)Cc1cccc(NC(=O)c2ccc(Nc3ncc(SC)c(-c4ccc(OC(F)(F)F)cc4)n3)c(F)c2)c1 [Compound 56, N-(3-Diethylaminomethyl-phenyl)-3-fluoro-4-[5-methylsulfanyl-4-(4-trifluoromethoxy-phenyl)-pyrimidin-2-ylamino]-benzamide]
100 to 1000	100 to 1000	100 to 1000	COc1ccc(CN2CCOCC2)cc1NC(=O)c1ccc(Nc2ncc(SC)c(-c3ccc(F)cc3)n2)cc1 [Compound 59, 4-[4-(4-Fluoro-phenyl)-5-methylsulfanyl-pyrimidin-2-ylamino]-N-(2-methoxy-5-morpholin-4-ylmethyl-phenyl)-benzamide]
< 100	< 100	< 100	COc1cnc(Nc2ccc(C(=O)Nc3cc(CN4CCOCC4)ccc3C)cc2F)nc1-c1ccc(F)cc1 [Compound 60, 3-Fluoro-4-[4-(4-fluoro-phenyl)-5-methoxy-pyrimidin-2-ylamino]-N-(2-methyl-5-morpholin-4-ylmethyl-phenyl)-benzamide]
100 to 1000	< 100	< 100	CCN(CC)Cc1ccc(C)c(NC(=O)c2ccc(Nc3ncc(OC)c(-c4ccc(OC(F)(F)F)cc4)n3)c(F)c2)c1 [Compound 61, N-(5-Diethylaminomethyl-2-methyl-phenyl)-3-fluoro-4-[5-methoxy-4-(4-trifluoromethoxy-phenyl)-pyrimidin-2-ylamino]-benzamide]
100 to 1000	< 100	< 100	CCN(CC)Cc1ccc(C)c(NC(=O)c2ccc(Nc3ncc(SC)c(-c4ccc(OC(F)(F)F)cc4)n3)nc2)c1 [Compound 66, N-(5-Diethylaminomethyl-2-methyl-phenyl)-6-[5-methylsulfanyl-4-(4-trifluoromethoxy-phenyl)-pyrimidin-2-ylamino]-nicotinamide]
100 to 1000	< 100	< 100	CSc1cnc(Nc2ccc(C(=O)Nc3cc(CN4CCOCC4)ccc3C)cc2)nc1-c1ccc(F)nc1 [Compound 67, 4-[4-(6-Fluoro-pyridin-3-yl)-5-methylsulfanyl-pyrimidin-2-ylamino]-N-(2-methyl-5-morpholin-4-ylmethyl-phenyl)-benzamide]
100 to 1000	< 100	100 to 1000	CSc1cnc(Nc2ccc(C(=O)Nc3cc(CN4CCOCC4)ccc3C)cc2)nc1-c1ccc(C(F)(F)F)nc1 [Compound 68, N-(2-Methyl-5-morpholin-4-ylmethyl-phenyl)-4-[5-methylsulfanyl-4-(6-trifluoromethyl-pyridin-3-yl)-pyrimidin-2-ylamino]-benzamide]
< 100	< 100	< 100	CSc1cnc(Nc2ccc(C(=O)Nc3cc(CN4CCOCC4)ccc3F)cc2)nc1-c1ccc(F)cc1 [Compound 71, N-(2-Fluoro-5-morpholin-4-ylmethyl-phenyl)-4-[4-(4-fluoro-phenyl)-5-methylsulfanyl-pyrimidin-2-ylamino]-benzamide]
< 100	< 100	< 100	CCOc1cnc(Nc2ccc(C(=O)Nc3cc(CN4CCOCC4)ccc3C)cc2)nc1-c1ccc(OC(F)(F)F)cc1 [Compound 72, 4-[5-Ethoxy-4-(4-trifluoromethoxy-phenyl)-pyrimidin-2-ylamino]-N-(2-methyl-5-morpholin-4-ylmethyl-phenyl)-benzamide]
100 to 1000	< 100	< 100	CCOc1cnc(Nc2ccc(C(=O)Nc3cc(CN4CCN(C)CC4)ccc3C)cc2)nc1-c1ccc(OC(F)(F)F)cc1 [Compound 73, 4-[5-Ethoxy-4-(4-trifluoromethoxy-phenyl)-pyrimidin-2-ylamino]-N-[2-methyl-5-(4-methyl-piperazin-1-ylmethyl)-phenyl]-benzamide]
100 to 1000	< 100	< 100	CCOc1cnc(Nc2ccc(C(=O)Nc3cc(CN(CC)CC)ccc3C)cc2)nc1-c1ccc(OC(F)(F)F)cc1 [Compound 74, N-(5-Diethylaminomethyl-2-methyl-phenyl)-4-[5-ethoxy-4-(4-trifluoromethoxy-phenyl)-pyrimidin-2-ylamino]-benzamide]
100 to 1000	< 100	< 100	CCOc1cnc(Nc2ccc(C(=O)Nc3cc(CN4CCOCC4)ccc3C)cc2)nc1-c1ccc(F)cc1 [Compound 75, 4-[5-Ethoxy-4-(4-fluoro-phenyl)-pyrimidin-2-ylamino]-N-(2-methyl-5-morpholin-4-ylmethyl-phenyl)-benzamide]
< 100	< 100	< 100	CCOc1cnc(Nc2ccc(C(=O)Nc3cc(CN4CCN(C)CC4)ccc3C)cc2)nc1-c1ccc(F)cc1 [Compound 76, 4-[5-Ethoxy-4-(4-fluoro-phenyl)-pyrimidin-2-ylamino]-N-[2-methyl-5-(4-methyl-piperazin-1-ylmethyl)-phenyl]-benzamide]
100 to 1000	< 100	< 100	CCOc1cnc(Nc2ccc(C(=O)Nc3cc(CN(CC)CC)ccc3C)cc2)nc1-c1ccc(F)cc1 [Compound 77, N-(5-Diethylaminomethyl-2-methyl-phenyl)-4-[5-ethoxy-4-(4-fluoro-phenyl)-pyrimidin-2-ylamino]-benzamide]
